Measured values reported in ChEMBL document CHEMBL3526083, “Prediction of relative in vivo metabolite exposure from in vitro data using two model drugs: dextromethorphan and omeprazole” (Drug Metab Dispos, 2012).

How the values were obtained:
Type in all cases: ADME
[1] = tested on: Liver microsome; test: Drug metabolism in human liver microsomes assessed as dextrophan-O-glucuronide formation measured per mg of microsomal protein
[2] = molecular target: T1, UDP-glucuronosyltransferase 1A1 (Homo sapiens, UniProt P22309); test: Drug metabolism assessed as recombinat UGT1A1 (unknown origin) -mediated dextrophan-O-glucuronide formation
T1 sequence (P22309 whole entry): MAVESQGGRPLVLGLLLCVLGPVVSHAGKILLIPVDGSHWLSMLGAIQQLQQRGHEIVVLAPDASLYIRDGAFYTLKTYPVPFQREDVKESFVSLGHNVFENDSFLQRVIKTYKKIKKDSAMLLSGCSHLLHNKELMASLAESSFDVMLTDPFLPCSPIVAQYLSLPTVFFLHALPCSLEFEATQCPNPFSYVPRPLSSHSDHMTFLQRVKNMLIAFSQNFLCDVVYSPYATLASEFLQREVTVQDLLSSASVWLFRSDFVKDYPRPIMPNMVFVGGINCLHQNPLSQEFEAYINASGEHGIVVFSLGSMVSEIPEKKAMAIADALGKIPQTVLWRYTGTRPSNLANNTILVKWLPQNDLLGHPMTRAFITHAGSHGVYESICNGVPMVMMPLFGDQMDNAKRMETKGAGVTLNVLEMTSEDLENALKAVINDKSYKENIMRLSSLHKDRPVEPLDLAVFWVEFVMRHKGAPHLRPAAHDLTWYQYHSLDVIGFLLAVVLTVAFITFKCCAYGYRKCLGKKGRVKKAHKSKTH

[3] = tested on: Liver microsome; test: Drug metabolism in human liver microsomes assessed as dextrophan-O-glucuronide formation measured as microsomal fraction unbound
[4] = tested on: Liver microsome; test: Drug metabolism in human liver microsomes assessed as dextrophan-O-glucuronide formation measured per mg of microsomal protein in presence of 2% BSA
[5] = tested on: Liver microsome; test: Drug metabolism in human liver microsomes assessed as 3-hydroxymorphinan formation measured as intrinsic unbound clearance
[6] = molecular target: T2, UDP-glucuronosyltransferase 2B15 (Homo sapiens, UniProt P54855); test: Drug metabolism assessed as recombinat UGT2B15 (unknown origin) -mediated dextrophan-O-glucuronide formation
T2 sequence (P54855 whole entry): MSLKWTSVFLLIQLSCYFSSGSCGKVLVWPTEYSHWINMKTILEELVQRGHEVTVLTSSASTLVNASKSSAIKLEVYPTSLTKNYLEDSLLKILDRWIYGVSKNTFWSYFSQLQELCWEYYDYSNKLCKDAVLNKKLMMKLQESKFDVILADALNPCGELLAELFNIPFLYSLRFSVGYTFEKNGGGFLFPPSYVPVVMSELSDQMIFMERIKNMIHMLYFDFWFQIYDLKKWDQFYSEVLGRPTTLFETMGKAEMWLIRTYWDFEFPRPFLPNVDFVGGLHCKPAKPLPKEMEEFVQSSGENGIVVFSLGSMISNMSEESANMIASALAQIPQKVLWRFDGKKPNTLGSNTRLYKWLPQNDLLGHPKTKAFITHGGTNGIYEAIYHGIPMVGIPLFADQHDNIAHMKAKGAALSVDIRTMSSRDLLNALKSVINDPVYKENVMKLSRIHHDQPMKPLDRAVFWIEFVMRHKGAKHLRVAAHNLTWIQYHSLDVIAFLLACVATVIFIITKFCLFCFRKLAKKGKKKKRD

[7] = molecular target: T3, UDP-glucuronosyltransferase 1A7 (Homo sapiens, UniProt Q9HAW7); test: Drug metabolism assessed as recombinat UGT1A7 (unknown origin) -mediated dextrophan-O-glucuronide formation
T3 sequence (Q9HAW7 whole entry): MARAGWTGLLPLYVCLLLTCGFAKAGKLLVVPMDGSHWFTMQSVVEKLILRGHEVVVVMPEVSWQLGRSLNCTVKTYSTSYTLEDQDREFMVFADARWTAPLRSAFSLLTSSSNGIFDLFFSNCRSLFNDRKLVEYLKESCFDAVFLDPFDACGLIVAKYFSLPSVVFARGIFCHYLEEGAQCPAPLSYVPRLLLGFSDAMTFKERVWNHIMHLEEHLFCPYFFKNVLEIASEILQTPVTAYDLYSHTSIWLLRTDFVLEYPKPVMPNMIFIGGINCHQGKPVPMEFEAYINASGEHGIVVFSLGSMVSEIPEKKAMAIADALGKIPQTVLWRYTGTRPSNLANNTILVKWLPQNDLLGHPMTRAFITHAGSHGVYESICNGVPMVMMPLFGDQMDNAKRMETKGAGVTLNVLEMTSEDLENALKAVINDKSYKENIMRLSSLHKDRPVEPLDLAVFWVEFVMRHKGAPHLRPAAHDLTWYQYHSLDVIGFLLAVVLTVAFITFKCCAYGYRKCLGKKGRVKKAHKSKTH

[8] = tested on: Liver microsome; test: Drug metabolism in human liver microsomes assessed as dextrophan-O-glucuronide formation in presence of 2% BSA
[9] = tested on: Liver microsome; test: Drug metabolism in human liver microsomes assessed as dextrophan-O-glucuronide formation
[10] = molecular target: T4, UDP-glucuronosyltransferase 2B17 (Homo sapiens, UniProt O75795); test: Drug metabolism assessed as recombinat UGT2B17 (unknown origin) -mediated dextrophan-O-glucuronide formation
T4 sequence (O75795 whole entry): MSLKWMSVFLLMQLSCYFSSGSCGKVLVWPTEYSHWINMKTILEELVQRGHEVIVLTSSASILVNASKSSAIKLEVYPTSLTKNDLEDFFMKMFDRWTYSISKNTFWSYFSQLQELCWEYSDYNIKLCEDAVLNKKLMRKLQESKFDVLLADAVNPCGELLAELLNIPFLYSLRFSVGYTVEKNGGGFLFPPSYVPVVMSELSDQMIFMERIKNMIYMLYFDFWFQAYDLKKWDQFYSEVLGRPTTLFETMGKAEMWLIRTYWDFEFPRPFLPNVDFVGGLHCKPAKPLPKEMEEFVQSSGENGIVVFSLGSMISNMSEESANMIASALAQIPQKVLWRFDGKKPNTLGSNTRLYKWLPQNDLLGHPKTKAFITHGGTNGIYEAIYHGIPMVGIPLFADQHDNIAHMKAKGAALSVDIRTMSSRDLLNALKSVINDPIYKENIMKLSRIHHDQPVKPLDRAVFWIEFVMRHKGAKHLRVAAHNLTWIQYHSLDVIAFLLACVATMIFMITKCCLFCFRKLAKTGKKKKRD

CN1CC[C@@]23CCCC[C@@H]2[C@@H]1Cc1ccc(O)cc13 [DEXTRORPHAN]
Vmax [1]: 2 nmol/min
Drug metabolism [2]: metabolite_not_detected
Fu [3]: 1
Vmax [4]: 2.3 nmol/min
CL free [5]: 0.95 µL/min/mg
Drug metabolism [6]: metabolite_detected
Drug metabolism [7]: metabolite_not_detected
Km [8]: 210 µM
Km [9]: 690 µM
Drug metabolism [10]: metabolite_detected
